Reference: ChEMBL document CHEMBL1201861, “Genomics of Drug Sensitity in Cancer screening data, Wellcome Trust Sanger Institute”

What was measured:
Format in all cases: functional, cell-based
[1] = system: COR-L279; test: SANGER: Inhibition of human COR-L279 cell growth in a cell viability assay.
[2] = system: CP50-MEL-B; test: cells; details: Homo sapiens;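 note: growth inhibition of the human cell line, measured with a cell viability read-out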
Description: SANGER: Inhibition of human CP50-MEL-B cell growth in a cell viability assay.

[3] = system: Calu-3; test: cells; details: Homo sapiens;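 note: growth inhibition of human Calu-3 cells, determined with a cell viability assay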
Description: SANGER: Inhibition of human Calu-3 cell growth in a cell viability assay.

[4] = system: DMS-153; test: cells; details: Homo sapiens
Description: SANGER: Inhibition of human DMS-153 cell growth in a cell viability assay.

[5] = system: Daoy; test: cells; details: Homo sapiens;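 note: daoy cell growth inhibition, read out as cell viability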
Description: SANGER: Inhibition of human Daoy cell growth in a cell viability assay.

[6] = system: FaDu; test: cells; details: Homo sapiens;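 note: cell viability readout of growth inhibition in FaDu cells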
Description: SANGER: Inhibition of human FADU cell growth in a cell viability assay.

[7] = system: HCC1419; test: cells; details: Homo sapiens;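 note: growth inhibition of human HCC1419 cells, read out as cell viability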
Description: SANGER: Inhibition of human HCC1419 cell growth in a cell viability assay.

[8] = system: HCC1569; test: cells; details: Homo sapiens;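 note: growth inhibition of human HCC1569 cells, read out with a cell viability assay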
Description: SANGER: Inhibition of human HCC1569 cell growth in a cell viability assay.

[9] = system: HO-1-N-1; test: cells; details: Homo sapiens;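 note: growth inhibition of human HO-1-N-1 cells, read out with a cell viability assay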
Description: SANGER: Inhibition of human HO-1-N-1 cell growth in a cell viability assay.

[10] = system: HPAF-II; test: cells; details: Homo sapiens;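 note: growth inhibition of HPAF-II cells, read out with a cell viability assay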
Description: SANGER: Inhibition of human HPAF-II cell growth in a cell viability assay.

[11] = system: HTC-C3; test: cells; details: Homo sapiens;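 note: inhibition of cell growth, read out with a cell viability assay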
Description: SANGER: Inhibition of human HTC-C3 cell growth in a cell viability assay.

[12] = system: IM-9; test: SANGER: Inhibition of human IM-9 cell growth in a cell viability assay.
[13] = system: IMR-5; test: cells; details: Homo sapiens;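 note: growth inhibition of human IMR-5 cells, read out with a cell viability assay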
Description: SANGER: Inhibition of human IMR-5 cell growth in a cell viability assay.

[14] = system: IST-SL2; test: cells; details: Homo sapiens;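 note: growth inhibition of human IST-SL2 cells, read out by a cell viability assay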
Description: SANGER: Inhibition of human IST-SL2 cell growth in a cell viability assay.

[15] = system: K052; test: cells; details: Homo sapiens;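 note: Read-out from a cell viability assay, IC50 reflecting suppression of K052 cell growth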
Description: SANGER: Inhibition of human K052 cell growth in a cell viability assay.

[16] = system: KU-19-19; test: cells; details: Homo sapiens
Description: SANGER: Inhibition of human KU-19-19 cell growth in a cell viability assay.

[17] = system: KYSE-410; test: cells; details: Homo sapiens;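 note: growth inhibition of KYSE-410 cells, measured through a cell viability readout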
Description: SANGER: Inhibition of human KYSE-410 cell growth in a cell viability assay.

[18] = system: KYSE-450; test: cells; details: Homo sapiens;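 note: cell growth inhibition measured by a viability assay in human KYSE-450 cells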
Description: SANGER: Inhibition of human KYSE-450 cell growth in a cell viability assay.

[19] = system: KYSE-70 cell line; test: cells; details: Homo sapiens;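 note: cell viability assay read-out, with IC50 expressing suppression of KYSE-70 cell growth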
Description: SANGER: Inhibition of human KYSE-70 cell growth in a cell viability assay.

[20] = system: LOUCY; test: cells; details: Homo sapiens;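 note: growth inhibition of human LOUCY cells, read out with a cell viability assay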
Description: SANGER: Inhibition of human LOUCY cell growth in a cell viability assay.

[21] = system: MCF7; test: cells; details: Homo sapiens;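 note: growth inhibition of human MCF7 cells, read out with a cell viability assay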
Description: SANGER: Inhibition of human MCF7 cell growth in a cell viability assay.

[22] = system: MDA-MB-231; test: cells; details: Homo sapiens
Description: SANGER: Inhibition of human MDA-MB-231 cell growth in a cell viability assay.

[23] = system: NALM-6; test: cells; details: Homo sapiens;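 note: growth inhibition of NALM-6 cells, read out with a cell viability assay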
Description: SANGER: Inhibition of human NALM-6 cell growth in a cell viability assay.

[24] = system: NB1; test: cells; details: Homo sapiens;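 note: reduction of NB1 cell proliferation, read out with a viability assay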
Description: SANGER: Inhibition of human NB1 cell growth in a cell viability assay.

[25] = system: NCI-H1436; test: cells; details: Homo sapiens;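 note: growth suppression of human NCI-H1436 cells, determined with a cell viability readout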
Description: SANGER: Inhibition of human NCI-H1436 cell growth in a cell viability assay.

[26] = system: NCI-H1573; test: cells; details: Homo sapiens;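 note: growth inhibition of NCI-H1573 cells, read out with a cell viability assay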
Description: SANGER: Inhibition of human NCI-H1573 cell growth in a cell viability assay.

[27] = system: NCI-H1693; test: cells; details: Homo sapiens;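 note: growth inhibition of the human cell line, read out with a cell viability assay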
Description: SANGER: Inhibition of human NCI-H1693 cell growth in a cell viability assay.

[28] = system: NCI-H1993; test: cells; details: Homo sapiens;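 note: growth inhibition of the cancer cell line, assessed with a cell viability assay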
Description: SANGER: Inhibition of human NCI-H1993 cell growth in a cell viability assay.

[29] = system: NCI-H2081; test: cells; details: Homo sapiens;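 note: growth inhibition of human NCI-H2081 cells, read out with a cell viability assay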
Description: SANGER: Inhibition of human NCI-H2081 cell growth in a cell viability assay.

[30] = system: NCI-H2228; test: cells; details: Homo sapiens;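 note: growth inhibition of human NCI-H2228 cells, read out by a cell viability assay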
Description: SANGER: Inhibition of human NCI-H2228 cell growth in a cell viability assay.

[31] = system: NCI-H2452; test: cells; details: Homo sapiens;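 note: growth inhibition of NCI-H2452 cells, read out with a cell viability assay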
Description: SANGER: Inhibition of human NCI-H2452 cell growth in a cell viability assay.

[32] = system: NCI-H748; test: cells; details: Homo sapiens;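 note: growth inhibition of NCI-H748 cells, measured by a cell viability assay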
Description: SANGER: Inhibition of human NCI-H748 cell growth in a cell viability assay.

[33] = system: OE19; test: cells; details: Homo sapiens;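 note: growth inhibition of OE19 cells, measured through a cell viability read-out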
Description: SANGER: Inhibition of human OE19 cell growth in a cell viability assay.

[34] = system: Panc1005; test: cells; details: Homo sapiens;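 note: growth inhibition of human PANC-10-05 cells, measured by a cell viability assay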
Description: SANGER: Inhibition of human PANC-10-05 cell growth in a cell viability assay.

[35] = system: PFSK-1; test: cells; details: Homo sapiens;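 note: cell viability assay measuring how strongly compounds suppress growth of human PFSK-1 cells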
Description: SANGER: Inhibition of human PFSK-1 cell growth in a cell viability assay.

[36] = system: SAS; test: cells; details: Homo sapiens;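 note: growth inhibition of SAS cells, read out with a cell viability assay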
Description: SANGER: Inhibition of human SAS cell growth in a cell viability assay.

[37] = system: SCC-9; test: cells; details: Homo sapiens;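 note: Read-out is a cell viability assay, with values giving inhibition of cell growth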
Description: SANGER: Inhibition of human SCC-9 cell growth in a cell viability assay.

[38] = system: SIMA; test: cells; details: Homo sapiens;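 note: growth inhibition of SIMA cells, measured with a cell viability readout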
Description: SANGER: Inhibition of human SIMA cell growth in a cell viability assay.

[39] = system: SJRH30; test: cells; details: Homo sapiens;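 note: growth inhibition of human SJRH30 cells, read out with a cell viability assay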
Description: SANGER: Inhibition of human SJRH30 cell growth in a cell viability assay.

[40] = system: SNU-449; test: cells; details: Homo sapiens
Description: SANGER: Inhibition of human SNU-449 cell growth in a cell viability assay.

[41] = system: ST486; test: SANGER: Inhibition of human ST486 cell growth in a cell viability assay.
[42] = system: SW13; test: cells; details: Homo sapiens;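 note: IC50 is inhibition of SW13 cell growth, read out with a cell viability assay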
Description: SANGER: Inhibition of human SW13 cell growth in a cell viability assay.

[43] = system: SW1417; test: cells; details: Homo sapiens;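 note: growth inhibition of human SW1417 cells, read out with a cell viability assay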
Description: SANGER: Inhibition of human SW1417 cell growth in a cell viability assay.

[44] = system: SW1710; test: cells; details: Homo sapiens;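 note: growth inhibition of SW1710 cells, determined with a cell viability assay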
Description: SANGER: Inhibition of human SW1710 cell growth in a cell viability assay.

[45] = system: SW1990; test: cells; details: Homo sapiens
Description: SANGER: Inhibition of human SW1990 cell growth in a cell viability assay.

[46] = system: SW756; test: cells; details: Homo sapiens;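 note: growth inhibition of human SW756 cells, read out with a cell viability assay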
Description: SANGER: Inhibition of human SW756 cell growth in a cell viability assay.

[47] = system: SW780; test: cells; details: Homo sapiens;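 note: growth inhibition of the cells, read out with a cell viability assay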
Description: SANGER: Inhibition of human SW780 cell growth in a cell viability assay.

[48] = system: CWR22R; test: cells; details: Homo sapiens, 22Rv1;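 note: growth inhibition of 22Rv1 cells, read out with a cell viability assay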
Description: SANGER: Inhibition of human 22RV1 cell growth in a cell viability assay.

[49] = system: 639-V; test: cells; details: Homo sapiens;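 note: growth inhibition of 639-V cells, read out with a cell viability assay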
Description: SANGER: Inhibition of human 639-V cell growth in a cell viability assay.

[50] = system: 769-P; test: cells; details: Homo sapiens
Description: SANGER: Inhibition of human 769-P cell growth in a cell viability assay.

[51] = system: 8505C; test: cells; details: Homo sapiens
Description: SANGER: Inhibition of human 8505C cell growth in a cell viability assay.

[52] = system: ASPC1; test: cells; details: Homo sapiens;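 note: growth inhibition of AsPC-1 cells, read out with a cell viability assay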
Description: SANGER: Inhibition of human AsPC-1 cell growth in a cell viability assay.

[53] = system: BEN; test: cells; details: Homo sapiens;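 note: growth inhibition of the BEN cell line, read out with a cell viability assay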
Description: SANGER: Inhibition of human BEN cell growth in a cell viability assay.

[54] = system: BOKU; test: cells; details: Homo sapiens;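 note: growth inhibition of the human BOKU cell line, read out by a cell viability assay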
Description: SANGER: Inhibition of human BOKU cell growth in a cell viability assay.

[55] = system: BT-20; test: cells; details: Homo sapiens;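 note: cell viability assay measuring suppression of growth in human BT-20 cells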
Description: SANGER: Inhibition of human BT-20 cell growth in a cell viability assay.

[56] = system: TGW; test: cells; details: Homo sapiens;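 note: growth inhibition of human TGW cells, read out with a cell viability assay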
Description: SANGER: Inhibition of human TGW cell growth in a cell viability assay.

[57] = system: UACC-893; test: cells; details: Homo sapiens
Description: SANGER: Inhibition of human UACC-893 cell growth in a cell viability assay.

[58] = system: VM-CUB-1; test: cells; details: Homo sapiens;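 note: cell viability assay measuring growth inhibition of the human VM-CUB-1 cell line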
Description: SANGER: Inhibition of human VM-CUB-1 cell growth in a cell viability assay.

[59] = system: VMRC-RCZ; test: cells; details: Homo sapiens
Description: SANGER: Inhibition of human VMRC-RCZ cell growth in a cell viability assay.

[60] = system: WSU-NHL; test: cells; details: Homo sapiens;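 note: growth inhibition of human WSU-NHL cells, read out with a cell viability assay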
Description: SANGER: Inhibition of human WSU-NHL cell growth in a cell viability assay.

[61] = system: CHP-212; test: cells; details: Homo sapiens
Description: SANGER: Inhibition of human CHP-212 cell growth in a cell viability assay.

[62] = system: CMK; test: cells; details: Homo sapiens;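 note: growth inhibition of CMK cells, read out as cell viability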
Description: SANGER: Inhibition of human CMK cell growth in a cell viability assay.

[63] = system: COLO-678; test: cells; details: Homo sapiens
Description: SANGER: Inhibition of human COLO-678 cell growth in a cell viability assay.

With `N#C/C(=C1/Nc2ccccc2S1)c1ccnc(NCCc2cccnc2)n1` the IC50 [1] was > 8000 nM, the IC50 [2] was > 8000 nM and the IC50 [3] was > 8000 nM. For the same compound, the IC50 [4] was > 8000 nM, the IC50 [5] was > 8000 nM and the IC50 [6] was > 8000 nM. The IC50 [7] was > 8000 nM, the IC50 [8] was 1960 nM and the IC50 [9] was > 8000 nM. The IC50 [10] was > 8000 nM, the IC50 [11] was 6520 nM and the IC50 [12] was > 8000 nM. The IC50 [13] was > 8000 nM, the IC50 [14] was > 8000 nM and the IC50 [15] was > 8000 nM. For the same compound, the IC50 [16] was > 8000 nM, the IC50 [17] was > 8000 nM and the IC50 [18] was 1140 nM. The IC50 [19] was 4060 nM, the IC50 [20] was > 8000 nM and the IC50 [21] was 1500 nM. The IC50 [22] was > 8000 nM, the IC50 [23] was 4490 nM and the IC50 [24] was > 8000 nM. The IC50 [25] was > 8000 nM, the IC50 [26] was > 8000 nM and the IC50 [27] was > 8000 nM. For the same compound, the IC50 [28] was > 8000 nM, the IC50 [29] was > 8000 nM and the IC50 [30] was 4480 nM. The IC50 [31] was > 8000 nM, the IC50 [32] was > 8000 nM and the IC50 [33] was 2920 nM. For the same compound, the IC50 [34] was > 8000 nM, the IC50 [35] was > 8000 nM and the IC50 [36] was > 8000 nM. The IC50 [37] was > 8000 nM, the IC50 [38] was > 8000 nM and the IC50 [39] was > 8000 nM. For the same compound, the IC50 [40] was 4870 nM, the IC50 [41] was 1740 nM and the IC50 [42] was > 8000 nM. For the same compound, the IC50 [43] was > 8000 nM, the IC50 [44] was 1590 nM and the IC50 [45] was > 8000 nM. For the same compound, the IC50 [46] was > 8000 nM, the IC50 [47] was > 8000 nM and the IC50 [48] was > 8000 nM. For the same compound, the IC50 [49] was 4840 nM, the IC50 [50] was > 8000 nM and the IC50 [51] was 2900 nM. The IC50 [52] was > 8000 nM, the IC50 [53] was > 8000 nM and the IC50 [54] was > 8000 nM. For the same compound, the IC50 [55] was > 8000 nM, the IC50 [56] was > 8000 nM and the IC50 [57] was > 8000 nM. The IC50 [58] was > 8000 nM, the IC50 [59] was 7770 nM and the IC50 [60] was > 8000 nM. The IC50 [61] was > 8000 nM, the IC50 [62] was 2750 nM and the IC50 [63] was > 8000 nM.

`CC(C)=CC[C@@H](O)C1=CC(=O)c2c(O)ccc(O)c2C1=O` [SHIKONIN] was tested, and the IC50 [1] was > 16000 nM, the IC50 [2] was 1430 nM and the IC50 [3] was 1110 nM. The IC50 [4] was > 16000 nM, the IC50 [5] was 159 nM and the IC50 [6] was 1770 nM. For the same compound, the IC50 [7] was 1690 nM, the IC50 [8] was 810 nM and the IC50 [9] was 462 nM. It also gave an IC50 [10] of 1270 nM, an IC50 [11] of 542 nM and an IC50 [12] of 3410 nM. For the same compound, the IC50 [13] was 589 nM, the IC50 [14] was 200 nM and the IC50 [15] was 1100 nM. For the same compound, the IC50 [16] was 3180 nM, the IC50 [17] was 752 nM and the IC50 [18] was 138 nM. It also gave an IC50 [19] of 2420 nM, an IC50 [20] of 586 nM and an IC50 [21] of 435 nM. For the same compound, the IC50 [22] was 1020 nM, the IC50 [23] was < 62.5 nM and the IC50 [24] was 1030 nM. For the same compound, the IC50 [25] was 604 nM, the IC50 [27] was > 16000 nM and the IC50 [28] was 2940 nM. The IC50 [29] was 1520 nM, the IC50 [30] was 901 nM and the IC50 [31] was > 16000 nM. The IC50 [32] was 1780 nM, the IC50 [33] was 807 nM and the IC50 [34] was 416 nM. The IC50 [35] was > 16000 nM, the IC50 [36] was 854 nM and the IC50 [37] was 197 nM. For the same compound, the IC50 [38] was 2320 nM, the IC50 [39] was 369 nM and the IC50 [40] was 813 nM. For the same compound, the IC50 [41] was < 62.5 nM, the IC50 [42] was 1410 nM and the IC50 [43] was 826 nM. For the same compound, the IC50 [44] was < 62.5 nM, the IC50 [45] was 1620 nM and the IC50 [46] was 762 nM. For the same compound, the IC50 [47] was 406 nM, the IC50 [48] was 4610 nM and the IC50 [49] was 265 nM. It also gave an IC50 [50] of 689 nM, an IC50 [51] of 3100 nM and an IC50 [52] of 619 nM. The IC50 [53] was 814 nM, the IC50 [54] was 1870 nM and the IC50 [55] was 2560 nM. The IC50 [56] was 522 nM, the IC50 [57] was > 16000 nM and the IC50 [58] was 1030 nM. The IC50 [59] was 547 nM, the IC50 [60] was 260 nM and the IC50 [61] was 1100 nM. It also gave an IC50 [62] of 352 nM and an IC50 [63] of 1630 nM.
